Source: PubChem BioAssay AID1963962 (Molecular Pharmacology Branch, DTP, NCI, 2024)

Tested on: 967376-340-R-J2-PDC multicell spheroid viability
Assay: Anticancer human tumor 967376-340-R-J2-PDC patient-derived colon adenocarcinoma cell line growth inhibition [PI3K]
Details: for IC50: curve of first compound; for viability, T/C: stronger effect = lower value
In short: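 Multi-cell spheroids combine tumor cells with HUVEC and human MSCs, treated with targeted agents alone or with inavolisib, alpelisib, duvelisib or copanlisib. Concentrations fall in half-log steps from at or near clinical Cmax, or from 10 microM where Cmax is unknown; viability read-out.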

[1] = second compound 0.0316 µM, first compound 0.0316 µM
[2] = second compound 0.0316 µM, first compound 0.1 µM
[3] = second compound 0.0316 µM, first compound 0.316 µM
[4] = second compound 0.0316 µM, first compound 1 µM
[5] = second compound 0.0316 µM, first compound 3.16 µM
[6] = second compound 0.0316 µM, first compound 10 µM
[7] = second compound 0.1 µM, first compound 0.0316 µM
[8] = second compound 0.1 µM, first compound 0.1 µM
[9] = second compound 0.1 µM, first compound 0.316 µM
[10] = second compound 0.1 µM, first compound 1 µM
[11] = second compound 0.1 µM, first compound 3.16 µM
[12] = second compound 0.1 µM, first compound 10 µM
[13] = second compound 0.316 µM, first compound 0.0316 µM
[14] = second compound 0.316 µM, first compound 0.1 µM
[15] = second compound 0.316 µM, first compound 0.316 µM
[16] = second compound 0.316 µM, first compound 1 µM
[17] = second compound 0.316 µM, first compound 3.16 µM
[18] = second compound 0.316 µM, first compound 10 µM
[19] = second compound 1 µM, first compound 0.0316 µM
[20] = second compound 1 µM, first compound 0.1 µM
[21] = second compound 1 µM, first compound 0.316 µM
[22] = second compound 1 µM, first compound 1 µM
[23] = second compound 1 µM, first compound 3.16 µM
[24] = second compound 1 µM, first compound 10 µM
[25] = second compound 3.16 µM, first compound 0.0316 µM
[26] = second compound 3.16 µM, first compound 0.1 µM
[27] = second compound 3.16 µM, first compound 0.316 µM
[28] = second compound 3.16 µM, first compound 1 µM
[29] = second compound 3.16 µM, first compound 3.16 µM
[30] = second compound 3.16 µM, first compound 10 µM
[31] = second compound 10 µM, first compound 0.0316 µM
[32] = second compound 10 µM, first compound 0.1 µM
[33] = second compound 10 µM, first compound 0.316 µM
[34] = second compound 10 µM, first compound 1 µM
[35] = second compound 10 µM, first compound 3.16 µM
[36] = second compound 10 µM, first compound 10 µM
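Further: spheroids exposed to agents for 7 days before read-out.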
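Wherever viability, T/C is given: luminescence used as surrogate of cell viability.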

CC1(C)CCC(CN2CCN(c3ccc(C(=O)NS(=O)(=O)c4ccc(NCC5CCOCC5)c([N+](=O)[O-])c4)c(Oc4cnc5[nH]ccc5c4)c3)CC2)=C(c2ccc(Cl)cc2)C1 + CC(Nc1ncnc2nc[nH]c12)c1cc2cccc(Cl)c2c(=O)n1-c1ccccc1
IC50 (second compound 0.0316 µM): > 10 µM
IC50 (second compound 0.1 µM): > 10 µM
IC50 (second compound 0.316 µM): > 10 µM
IC50 (second compound 1 µM): > 10 µM
IC50 (second compound 3.16 µM): > 10 µM
IC50 (second compound 10 µM): > 10 µM
viability, T/C [1]: 92%
viability, T/C [2]: 83.4%
viability, T/C [3]: 98.1%
viability, T/C [4]: 83.8%
viability, T/C [5]: 75.6%
viability, T/C [6]: 92.2%
viability, T/C [7]: 95.1%
viability, T/C [8]: 79.7%
viability, T/C [9]: 82.7%
viability, T/C [10]: 87.3%
viability, T/C [11]: 86.3%
viability, T/C [12]: 75.2%
viability, T/C [13]: 102%
viability, T/C [14]: 101%
viability, T/C [15]: 83%
viability, T/C [16]: 83.1%
viability, T/C [17]: 86.5%
viability, T/C [18]: 71.6%
viability, T/C [19]: 88.5%
viability, T/C [20]: 115%
viability, T/C [21]: 116%
viability, T/C [22]: 87.8%
viability, T/C [23]: 79%
viability, T/C [24]: 74.1%
viability, T/C [25]: 90.4%
viability, T/C [26]: 86%
viability, T/C [27]: 67.6%
viability, T/C [28]: 82.9%
viability, T/C [29]: 79.1%
viability, T/C [30]: 101%
viability, T/C [31]: 55.1%
viability, T/C [32]: 73.3%
viability, T/C [33]: 83.4%
viability, T/C [34]: 74.7%
viability, T/C [35]: 68%
viability, T/C [36]: 76.3%

CCCS(=O)(=O)Nc1ccc(F)c(C(=O)c2c[nH]c3ncc(-c4ccc(Cl)cc4)cc23)c1F + CC(Nc1ncnc2nc[nH]c12)c1cc2cccc(Cl)c2c(=O)n1-c1ccccc1
IC50 (second compound 0.0316 µM): > 10 µM
IC50 (second compound 0.1 µM): > 10 µM
IC50 (second compound 0.316 µM): > 10 µM
IC50 (second compound 1 µM): > 10 µM
IC50 (second compound 3.16 µM): > 10 µM
IC50 (second compound 10 µM): > 10 µM
viability, T/C [1]: 122%
viability, T/C [2]: 125%
viability, T/C [3]: 109%
viability, T/C [4]: 113%
viability, T/C [5]: 103%
viability, T/C [6]: 58.9%
viability, T/C [7]: 97.2%
viability, T/C [8]: 106%
viability, T/C [9]: 99.1%
viability, T/C [10]: 90.5%
viability, T/C [11]: 92%
viability, T/C [12]: 52.7%
viability, T/C [13]: 103%
viability, T/C [14]: 89.1%
viability, T/C [15]: 96.6%
viability, T/C [16]: 96.3%
viability, T/C [17]: 109%
viability, T/C [18]: 60.4%
viability, T/C [19]: 98.2%
viability, T/C [20]: 95.4%
viability, T/C [21]: 105%
viability, T/C [22]: 92.7%
viability, T/C [23]: 110%
viability, T/C [24]: 58.4%
viability, T/C [25]: 119%
viability, T/C [26]: 79.9%
viability, T/C [27]: 92.2%
viability, T/C [28]: 111%
viability, T/C [29]: 100%
viability, T/C [30]: 74.9%
viability, T/C [31]: 84.2%
viability, T/C [32]: 87.1%
viability, T/C [33]: 80%
viability, T/C [34]: 88.7%
viability, T/C [35]: 98.7%
viability, T/C [36]: 61.1%

CNC(=O)c1ccc(N2C(=S)N(c3ccc(C#N)c(C(F)(F)F)c3)C(=O)C2(C)C)cc1F + CC(Nc1ncnc2nc[nH]c12)c1cc2cccc(Cl)c2c(=O)n1-c1ccccc1
IC50 (second compound 0.0316 µM): > 10 µM
IC50 (second compound 0.1 µM): > 10 µM
IC50 (second compound 0.316 µM): > 10 µM
IC50 (second compound 1 µM): > 10 µM
IC50 (second compound 3.16 µM): > 10 µM
IC50 (second compound 10 µM): > 10 µM
viability, T/C [1]: 140%
viability, T/C [2]: 88.7%
viability, T/C [3]: 92%
viability, T/C [4]: 101%
viability, T/C [5]: 134%
viability, T/C [6]: 88.3%
viability, T/C [7]: 109%
viability, T/C [8]: 109%
viability, T/C [9]: 94.2%
viability, T/C [10]: 104%
viability, T/C [11]: 99.3%
viability, T/C [12]: 73.1%
viability, T/C [13]: 89.6%
viability, T/C [14]: 104%
viability, T/C [15]: 82.2%
viability, T/C [16]: 92%
viability, T/C [17]: 106%
viability, T/C [18]: 105%
viability, T/C [19]: 81.4%
viability, T/C [20]: 80.3%
viability, T/C [21]: 72.3%
viability, T/C [22]: 86.1%
viability, T/C [23]: 113%
viability, T/C [24]: 88.5%
viability, T/C [25]: 78.5%
viability, T/C [26]: 89%
viability, T/C [27]: 82%
viability, T/C [28]: 80.1%
viability, T/C [29]: 102%
viability, T/C [30]: 87.5%
viability, T/C [31]: 63.9%
viability, T/C [32]: 83.7%
viability, T/C [33]: 70%
viability, T/C [34]: 70.6%
viability, T/C [35]: 92.3%
viability, T/C [36]: 77.4%
